In paper PMC3530200 (Bioorganic & medicinal chemistry letters, 2012):
Blank lines part the entries; values can stand above or below the molecule they belong to. Numbered stars: 1 amine (or outer) side, 2 acyl side, 3 side chain; on linkers, the order of the positions; unused ones are H or OH. Square brackets hold non-standard residues; d marks the D form. Peptide text beside a SMILES is read from it. X2 = O=C([C@H](Cc1cn(CCCCCCCCc2ccccc2)c2ccccc12)N[*:1])[*:2]; X1 = O=C([C@H](Cc1cn(CCCCCCCCc2ccccc2)cn1)N[*:1])[*:2]; pT = C[C@@H](OP(=O)(O)O)[C@H](N)C(=O)O

Target: Plk1 PBD (Homo sapiens, UniProt P53350)
Assay: ELISA-based Plk1 PBD-binding inhibition assay

Sequence of Plk1 PBD (P53350 whole entry): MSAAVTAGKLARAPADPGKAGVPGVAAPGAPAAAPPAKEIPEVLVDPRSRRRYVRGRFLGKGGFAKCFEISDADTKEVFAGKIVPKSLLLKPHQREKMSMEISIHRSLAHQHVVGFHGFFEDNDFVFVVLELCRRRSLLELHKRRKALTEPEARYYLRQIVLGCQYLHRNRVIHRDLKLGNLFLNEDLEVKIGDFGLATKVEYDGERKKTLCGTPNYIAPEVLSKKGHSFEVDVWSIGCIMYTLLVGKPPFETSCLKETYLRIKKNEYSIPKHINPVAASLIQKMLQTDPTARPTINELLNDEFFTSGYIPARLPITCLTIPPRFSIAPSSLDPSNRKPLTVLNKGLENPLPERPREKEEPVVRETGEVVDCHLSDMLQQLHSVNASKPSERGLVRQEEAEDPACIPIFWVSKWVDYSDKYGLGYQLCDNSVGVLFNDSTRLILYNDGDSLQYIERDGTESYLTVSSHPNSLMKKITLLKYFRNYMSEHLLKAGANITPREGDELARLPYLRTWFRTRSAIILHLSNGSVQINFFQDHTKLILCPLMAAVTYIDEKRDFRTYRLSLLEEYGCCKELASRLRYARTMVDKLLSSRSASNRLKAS

Molecule: CC(=O)N1CCC[C@H]1C(=O)N[C@@H](CC(C)C)C(=O)N[C@@H](Cc1cn(CCCCCCCCc2ccccc2)c2ccccc12)C(=O)N[C@@H](CO)C(=O)N[C@H](C(N)=O)[C@@H](C)OP(=O)(O)O [1d] (Ac-PL[X2]S[pT]-NH2; N-terminus and C-terminus assumed)
fold less affinity than 1c (ratio of IC50 relative to 1c): approximately 30 fold

affinity of non-phosphorylated control peptide (even at the highest concentration tested (300 μM)): negligible affinity
Molecule: PLHST [reference compound]

Molecule: CC(=O)N1CCC[C@H]1C(=O)N[C@@H](CC(C)C)C(=O)N[C@@H](Cc1cn(CCCCCCCCc2ccccc2)cn1)C(=O)N[C@@H](CO)C(=O)N[C@H](C(N)=O)[C@@H](C)OP(=O)(O)O [1c] (Ac-PL[X1]S[pT]-NH2; N-terminus and C-terminus assumed)
fold less affinity than 1b (ratio of IC50 relative to 1b): approximately 50 fold
